Patent US20260098061A1, “EPHA2-BINDING PENDING PEPTIDE AND COMPOSITION COMPRISING SAME” (PeptiDream Inc., priority 2022, published 2026)
Numbered stars: 1 amine (or outer) side, 2 acyl side, 3 side chain; on linkers, the order of the positions; unused ones are H or OH. Bridge positions count the residues as written; N and C are the ends. Square brackets hold non-standard residues; d marks the D form. Side chains are listed from the residue outwards. Peptide text beside a SMILES is read from it. * marks the point of attachment. NH(1-deoxy-D-glucityl) = OC[C@@H](O)[C@@H](O)[C@H](O)[C@@H](O)CN*; NMePhe(4-Cl) = CN[C@@H](Cc1ccc(Cl)cc1)C(=O)O; Piperazinyl(4-CH2COOH) = O=C(O)CN1CCN(*)CC1; Trp(1-Me) = Cn1cc(C[C@H](N)C(=O)O)c2ccccc21; NMe3Pal = CN[C@@H](Cc1cccnc1)C(=O)O; NMeF = CN[C@@H](Cc1ccccc1)C(=O)O; Gly(cBu) = N[C@H](C(=O)O)C1CCC1; NMeE = CN[C@@H](CCC(=O)O)C(=O)O; Aad = N[C@@H](CCCC(=O)O)C(=O)O; NMeN = CN[C@@H](CC(N)=O)C(=O)O; dAhp(2) = CCCCC[C@@H](N)C(=O)O; CO = O=C([*:1])[*:2]

Target: T1, Recombinant Human EphA2 Fc Protein (Homo sapiens, UniProt P29317)
T1 construct: purchased Elabscience
Test: SPR interaction analysis (Biacore T200), kinetics of peptides against EphA2
Type: binding
Settings: Recombinant Human EphA2 Fc Protein captured by Human Antibody Capture kit; single-cycle kinetics; 25° C.; HBS-P+ buffer with 1% DMSO
Method in brief: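 KD derived from ka and kd, fitted on baseline-subtracted sensorgrams from single-cycle kinetics of five peptide dilutions. Running buffer: HBS-P+ (pH 7.4) plus 1% DMSO, 25° C, Biacore T200. Recombinant human EphA2-Fc held on an antibody capture surface.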

In the case of `C[C@H]1NC(=O)CSC[C@@H](C(N)=O)NC(=O)[C@H](CCCC(N)=O)NC(=O)[C@H]([C@@H](C)O)NC(=O)[C@H](Cc2cn(C)c3ccccc23)NC(=O)[C@H](CCC(=O)NC[C@H](O)[C@@H](O)[C@H](O)[C@H](O)CO)NC(=O)[C@H](Cc2cn(C)c3ccccc23)NC(=O)[C@H](CC(N)=O)N(C)C(=O)[C@H](CCCC(N)=O)NC(=O)[C@H](C2CCC2)NC(=O)[C@H](CC(N)=O)NC(=O)[C@H](Cc2ccccc2)N(C)C1=O` [PDC_EphA2-00013703, da-MeF-N-Cbg-Hgn-MEN-W1Me-Qglucamine-W1Me-T-Hgn-C-NH2] ({CH2CO}-[dA][NMeF]N[Gly(cBu)][Aad](NH2)[NMeN][Trp(1-Me)]E(NH(1-deoxy-D-glucityl))[Trp(1-Me)]T[Aad](NH2)C-NH2; thioether N-12), the Kd is reported as < 1 nM.
In the case of `C[C@H]1NC(=O)CSC[C@@H](C(N)=O)NC(=O)[C@H](CCCC(N)=O)NC(=O)[C@H]([C@@H](C)O)NC(=O)[C@H](Cc2cn(C)c3ccccc23)NC(=O)[C@H](CCC(=O)NC[C@H](O)[C@@H](O)[C@H](O)[C@H](O)CO)NC(=O)[C@H](Cc2cn(C)c3ccccc23)NC(=O)[C@H](Cc2cccnc2)N(C)C(=O)[C@H](CCCC(N)=O)NC(=O)[C@H](C2CCC2)NC(=O)[C@H](CC(N)=O)NC(=O)[C@H](Cc2ccccc2)N(C)C1=O` [PDC_EphA2-00013704, da-MeF-N-Cbg-Hgn-Me3Py-W1Me-Qglucamine-W1Me-T-Hgn-C-NH2] ({CH2CO}-[dA][NMeF]N[Gly(cBu)][Aad](NH2)[NMe3Pal][Trp(1-Me)]E(NH(1-deoxy-D-glucityl))[Trp(1-Me)]T[Aad](NH2)C-NH2; thioether N-12), the Kd is reported as < 1 nM.
`C[C@H]1NC(=O)CSC[C@@H](C(N)=O)NC(=O)[C@H](CCCC(N)=O)NC(=O)[C@H]([C@@H](C)O)NC(=O)[C@H](Cc2cn(C)c3ccccc23)NC(=O)[C@H](CCC(=O)NC[C@H](O)[C@@H](O)[C@H](O)[C@H](O)CO)NC(=O)[C@H](Cc2cn(C)c3ccccc23)NC(=O)[C@H](Cc2cccnc2)N(C)C(=O)[C@H](CCCC(N)=O)NC(=O)[C@H](C2CCC2)NC(=O)[C@H](CC(N)=O)NC(=O)[C@H](Cc2cccnc2)N(C)C1=O` [PDC_EphA2-00013705, da-Me3Py-N-Cbg-Hgn-Me3Py-W1Me-Qglucamine-W1Me-T-Hgn-C-NH2] ({CH2CO}-[dA][NMe3Pal]N[Gly(cBu)][Aad](NH2)[NMe3Pal][Trp(1-Me)]E(NH(1-deoxy-D-glucityl))[Trp(1-Me)]T[Aad](NH2)C-NH2; thioether N-12) was tested, and the Kd was < 1 nM.
In the case of `C[C@H]1NC(=O)CSC[C@@H](C(N)=O)NC(=O)[C@H](CCCC(N)=O)NC(=O)[C@H]([C@@H](C)O)NC(=O)[C@H](Cc2cn(C)c3ccccc23)NC(=O)[C@H](CCC(=O)NC[C@H](O)[C@@H](O)[C@H](O)[C@H](O)CO)NC(=O)[C@H](Cc2cn(C)c3ccccc23)NC(=O)[C@H](Cc2ccccc2)N(C)C(=O)[C@H](CCCC(N)=O)NC(=O)[C@H](C2CCC2)NC(=O)[C@H](CC(N)=O)NC(=O)[C@H](Cc2ccccc2)N(C)C1=O` [PDC_EphA2-00013917, da-MeF-N-Cbg-Hgn-MeF-W1Me-QGlucamine-W1Me-T-Hgn-C-NH2] ({CH2CO}-[dA][NMeF]N[Gly(cBu)][Aad](NH2)[NMeF][Trp(1-Me)]E(NH(1-deoxy-D-glucityl))[Trp(1-Me)]T[Aad](NH2)C-NH2; thioether N-12), the Kd is reported as < 1 nM.
`CCCCC[C@H]1NC(=O)CSC[C@@H](C(N)=O)NC(=O)[C@H](CCCC(N)=O)NC(=O)[C@H]([C@@H](C)O)NC(=O)[C@H](Cc2cn(C)c3ccccc23)NC(=O)[C@H](CCCCNC(=O)N2CCN(CC(=O)O)CC2)NC(=O)[C@H](Cc2cn(C)c3ccccc23)NC(=O)[C@H](Cc2ccccc2)N(C)C(=O)[C@H](CCCC(=O)O)NC(=O)[C@H](CC(C)C)NC(=O)[C@H](CC(N)=O)NC(=O)[C@H](Cc2cccnc2)N(C)C1=O` [PDC_EphA2-00018526, dahp-Me3Py-N-L-Hgl-MeF-W1Me-KCOpipzaa-W1Me-T-Hgn-C-NH2] ({CH2CO}-[dAhp(2)][NMe3Pal]NL[Aad][NMeF][Trp(1-Me)]K([CO-Piperazinyl(4-CH2COOH)])[Trp(1-Me)]T[Aad](NH2)C-NH2; thioether N-12) was tested, and the Kd was < 1 nM.
`CC(C)C[C@@H]1NC(=O)[C@H](CC(N)=O)NC(=O)[C@H](Cc2cccnc2)N(C)C(=O)[C@@H](C)NC(=O)CSC[C@@H](C(N)=O)NC(=O)[C@H](CCCC(N)=O)NC(=O)[C@H]([C@@H](C)O)NC(=O)[C@H](Cc2cn(C)c3ccccc23)NC(=O)[C@H](CCCCNC(=O)N2CCN(CC(=O)O)CC2)NC(=O)[C@H](Cc2cn(C)c3ccccc23)NC(=O)[C@H](Cc2ccc(Cl)cc2)N(C)C(=O)[C@H](CCCC(=O)O)NC1=O` [PDC_EphA2-00018527, da-Me3Py-N-L-Hgl-MeF4C-W1Me-KCOpipzaa-W1Me-T-Hgn-C-NH2] ({CH2CO}-[dA][NMe3Pal]NL[Aad][NMePhe(4-Cl)][Trp(1-Me)]K([CO-Piperazinyl(4-CH2COOH)])[Trp(1-Me)]T[Aad](NH2)C-NH2; thioether N-12) was tested, and the Kd was < 1 nM.
`CNC(=O)C[C@@H]1NC(=O)[C@H]([C@@H](C)O)NC(=O)[C@H](Cc2cn(C)c3ccccc23)NC(=O)[C@H](CCCCNC(=O)N2CCN(CC(=O)O)CC2)NC(=O)[C@H](Cc2cn(C)c3ccccc23)NC(=O)[C@H](Cc2ccccc2)N(C)C(=O)[C@H](CCCC(=O)O)NC(=O)[C@H](CC(C)C)NC(=O)[C@H](CC(N)=O)NC(=O)[C@H](Cc2cccnc2)N(C)C(=O)[C@@H](C)NC(=O)CSC[C@@H](C(N)=O)NC1=O` [PDC_EphA2-00018528, da-Me3Py-N-L-Hgl-MeF-W1Me-KCOpipzaa-W1Me-T-Nmm-C-NH2] ({CH2CO}-[dA][NMe3Pal]NL[Aad][NMeF][Trp(1-Me)]K([CO-Piperazinyl(4-CH2COOH)])[Trp(1-Me)]TD(NHMe)C-NH2; thioether N-12) was tested, and the Kd was < 1 nM.
With `CC(C)C[C@@H]1NC(=O)[C@H](CC(N)=O)NC(=O)[C@H](Cc2cccnc2)N(C)C(=O)[C@@H](C)NC(=O)CSC[C@@H](C(N)=O)NC(=O)[C@H](CC(=O)N(C)C)NC(=O)[C@H]([C@@H](C)O)NC(=O)[C@H](Cc2cn(C)c3ccccc23)NC(=O)[C@H](CCCCNC(=O)N2CCN(CC(=O)O)CC2)NC(=O)[C@H](Cc2cn(C)c3ccccc23)NC(=O)[C@H](Cc2ccccc2)N(C)C(=O)[C@H](CCCC(=O)O)NC1=O` [PDC_EphA2-00018529, da-Me3Py-N-L-Hgl-MeF-W1Me-KCOpipzaa-W1Me-T-Ndm-C-NH2] ({CH2CO}-[dA][NMe3Pal]NL[Aad][NMeF][Trp(1-Me)]K([CO-Piperazinyl(4-CH2COOH)])[Trp(1-Me)]TD(NMe2)C-NH2; thioether N-12) the Kd was < 1 nM.
`CCCCC[C@H]1NC(=O)CSC[C@@H](C(N)=O)NC(=O)[C@H](CCCC(N)=O)NC(=O)[C@H]([C@@H](C)O)NC(=O)[C@H](Cc2cn(C)c3ccccc23)NC(=O)[C@H](CCCCNC(=O)N2CCN(CC(=O)O)CC2)NC(=O)[C@H](Cc2cn(C)c3ccccc23)NC(=O)[C@H](CCC(=O)O)N(C)C(=O)[C@H](CCCC(N)=O)NC(=O)[C@H](CC(C)C)NC(=O)[C@H](CC(N)=O)NC(=O)[C@H](Cc2cccnc2)N(C)C1=O` [PDC_EphA2-00018530, dahp-Me3Py-N-L-Hgn-MeE-W1Me-KCOpipzaa-W1Me-T-Hgn-C-NH2] ({CH2CO}-[dAhp(2)][NMe3Pal]NL[Aad](NH2)[NMeE][Trp(1-Me)]K([CO-Piperazinyl(4-CH2COOH)])[Trp(1-Me)]T[Aad](NH2)C-NH2; thioether N-12) was tested, and the Kd was < 1 nM.
